Assay results taken from patent US20250326771A1, “PIPERAZINE DERIVATIVES USEFUL IN HIV THERAPY” (VIIV HEALTHCARE COMPANY, priority 2022, published 2025).
Read-outs that look alike come from different tables or passages of the source.

What was measured:
[1] = system: Jurkat HIV-luciferase clones; experiment: Jurkat latency reversal assay; assay type: cell-based; conditions: Homo sapiens, 48 h; Jurkat latency reversal assay potency; read-out: Jurkat pEC50 (converted)
How it was run: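 Three pooled Jurkat reporter clones, each with one or two integrated HIV-luciferase proviruses, 5,000 cells/well; duplicate 14-point titrations starting at 10 μM; 48 h, 37° C, then Steady-Glo luminescence; four-parameter logistic analysis yields EC50 and percent maximal activation against DMSO vehicle.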

XIAP-BIR3 = XIAP-BIR3 (Homo sapiens (Human), UniProt P98170); experiment: BIR binding assay (FRET competition), XIAP BIR3; conditions: for XIAP BIR3 vs BIR2 separation window: fold separation (FS) for XIAP
How it was run: (§1)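 Compounds tested as 15-point, 3-fold series displacing 200 nM AlexaFluor647-labelled SMAC peptide from His-tagged BIR domain (cIAP1-BIR3 50 nM; cIAP1-BIR2 and cIAP2-BIR2 325 nM; XIAP-BIR3 100 nM), pH 7.4, 60 min. Eu-W1024 (2 nM) added 30 min; emission ratio fitted for IC50.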

cIAP2-BIR2 = cIAP2-BIR2 (Homo sapiens (Human), UniProt Q13489); experiment: BIR binding assay (FRET competition), cIAP2 BIR2
How it was run: as §1

XIAP-BIR2 = XIAP-BIR2 (Homo sapiens (Human), UniProt P98170); experiment: BIR binding assay (FRET competition), XIAP BIR2; conditions: read-out: XIAP BIR2 (pIC50) (converted)
How it was run: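 Competitive TR-FRET used His-tagged XIAP-BIR2 (200 nM) and 200 nM AlexaFluor647-labelled AVPIAQKSE SMAC peptide in HEPES buffer pH 7.4 with CHAPS, glycerol and DTT, incubated 60 min before 30 min with 2 nM Eu-W1024. The 615/665 nm ratio from a 15-point, 3-fold series was fit with a four-parameter model for IC50/pIC50.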

cIAP2-BIR3 = cIAP2-BIR3 (Homo sapiens (Human), UniProt Q13489); experiment: BIR binding assay (FRET competition), cIAP2 BIR3; conditions: for cIAP2 BIR3 vs BIR2 separation window: fold separation (FS) for cIAP2
cIAP1-BIR3 = cIAP1-BIR3 (Homo sapiens (Human), UniProt Q13490); experiment: BIR binding assay (FRET competition), cIAP1 BIR3; conditions: for cIAP1 BIR3 vs BIR2 separation window: fold separation (FS) for cIAP1
How it was run: as §1

cIAP1-BIR2 = cIAP1-BIR2 (Homo sapiens (Human), UniProt Q13490); experiment: BIR binding assay (FRET competition), cIAP1 BIR2
How it was run: as §1

Chain of cIAP1-BIR3 (Q13490 253-363): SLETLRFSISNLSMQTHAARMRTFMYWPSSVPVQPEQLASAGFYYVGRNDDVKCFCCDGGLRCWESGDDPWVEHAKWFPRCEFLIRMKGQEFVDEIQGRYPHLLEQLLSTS
Chain of XIAP-BIR2 (P98170 124-240): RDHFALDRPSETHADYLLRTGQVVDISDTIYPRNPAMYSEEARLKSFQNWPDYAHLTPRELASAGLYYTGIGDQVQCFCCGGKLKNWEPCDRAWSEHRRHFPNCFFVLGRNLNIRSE
Chain of cIAP2-BIR2 (Q13489 158-242): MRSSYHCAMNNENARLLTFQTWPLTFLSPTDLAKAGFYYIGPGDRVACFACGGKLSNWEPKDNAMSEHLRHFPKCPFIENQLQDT
Chain of XIAP-BIR3 (P98170 241-356): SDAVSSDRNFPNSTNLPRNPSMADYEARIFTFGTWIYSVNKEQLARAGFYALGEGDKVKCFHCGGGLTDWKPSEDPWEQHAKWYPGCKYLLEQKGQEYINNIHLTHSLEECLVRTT
Chain of cIAP2-BIR3 (Q13489 238-349): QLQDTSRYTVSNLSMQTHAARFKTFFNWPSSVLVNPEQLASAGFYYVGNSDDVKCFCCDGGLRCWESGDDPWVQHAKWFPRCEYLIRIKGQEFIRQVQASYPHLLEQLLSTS
Chain of cIAP1-BIR2 (Q13490 173-257): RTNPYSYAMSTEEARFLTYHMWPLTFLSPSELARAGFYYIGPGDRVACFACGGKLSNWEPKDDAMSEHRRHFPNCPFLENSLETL

Row | SMILES | EC50 [1] [nM] | IC50 (XIAP-BIR3) [nM] | XIAP BIR3 vs BIR2 separation window (XIAP-BIR3) | IC50 (cIAP2-BIR2) [µM] | IC50 (XIAP-BIR2; FRET competition binding) [µM] | IC50 (cIAP2-BIR3) [nM] | cIAP2 BIR3 vs BIR2 separation window (cIAP2-BIR3) | IC50 (cIAP1-BIR3) [nM] | cIAP1 BIR3 vs BIR2 separation window (cIAP1-BIR3) | IC50 (cIAP1-BIR2) [µM] | IC50 (XIAP-BIR2; FRET competition) [µM]
1 | C[C@@H]1CN(CC(=O)N2CC(C)(C)c3[nH]c(=O)c(Cc4ccc(F)cc4)cc32)[C@@H](CN2CCN(C(=O)c3ccc4cc(C(=O)N5CCN(C[C@H]6CN[C@H](C)CN6CC(=O)N6CC(C)(C)c7[nH]c(=O)c(Cc8ccc(F)cc8)cc76)[C@H](C)C5)ccc4c3)C[C@H]2C)CN1 [Example 18, 1,1′-(2,2′-((3R,3′R,6R,6′R)-(((2R,2′R)-(naphthalene-2,6-dicarbonyl)bis(2-methylpiperazine-4,1-diyl))bis(methylene))bis(3-methylpiperazine-6,1-diyl))bis(acetyl))bis(6-(4-fluorobenzyl)-3,3-dimethyl-1,2,3,4-tetrahydro-5H-pyrrolo[3,2-b]pyridin-5-one)] | 12.6 to 63.1 | 1.38 to 7.94 | ++++ (FS>10,000) | 1 to 3.16 | 10 to 51.3 | 1.38 to 7.94 | +++ (10,000>FS>1,000) | 1.38 to 7.94 | +++ (10,000>FS>1,000) | 1 to 3.16 | 
2 | C[C@@H]1CN(CC(=O)N2CC(C)(C)c3[nH]c(=O)c(Cc4ccc(F)cc4)cc32)[C@@H](CN2CCO[C@H](COCC#CC#CCOC[C@@H]3CN(C[C@H]4CN[C@H](C)CN4CC(=O)N4CC(C)(C)c5[nH]c(=O)c(Cc6ccc(F)cc6)cc54)CCO3)C2)CN1 [Example 63, 1,1′-(2,2′-((3R,3′R,6R,6′R)-(((2S,2'S)-((hexa-2,4-diyne-1,6-diylbis(oxy))bis(methylene))bis(morpholine-2,4-diyl))bis(methylene))bis(3-methylpiperazine-6,1-diyl))bis(acetyl))bis(6-(4-fluorobenzyl)-3,3-dimethyl-1,2,3,4-tetrahydro-5H-pyrrolo[3,2-b]pyridin-5-one)] | 12.6 to 63.1 | 15.8 to 31.6 |  | 3.16 to 10 | 10 to 51.3 | 15.8 to 31.6 |  | 7.94 to 15.8 |  | 1 to 3.16 | 
3 | C[C@@H]1CN(CC(=O)N2CC(C)(C)c3[nH]c(=O)c(Cc4ccc(F)cc4F)cc32)[C@@H](CN2CCO[C@H](COc3cccc(OC[C@@H]4CN(C[C@H]5CN[C@H](C)CN5CC(=O)N5CC(C)(C)c6[nH]c(=O)c(Cc7ccc(F)cc7F)cc65)CCO4)c3)C2)CN1 [Compound 190] | 0.49 to 12.6 | 15.8 to 31.6 | ++++ (FS>10,000) | 3.16 to 10 |  | 15.8 to 31.6 | +++ (10,000>FS>1,000) | 15.8 to 31.6 | +++ (10,000>FS>1,000) | 3.16 to 10 | 10 to 51.3
4 | C[C@@H]1CN(CC(=O)N2CC(C)(C)c3[nH]c(=O)c(Cc4ccc(F)cc4)cc32)[C@@H](CN2CCN(CCc3cn(CCCCC(=O)N4CCN(C[C@H]5CN[C@H](C)CN5CC(=O)N5CC(C)(C)c6[nH]c(=O)c(Cc7ccc(F)cc7)cc65)[C@H](C)C4)nn3)C[C@H]2C)CN1 [Compound 158] | 63.1 to 316 | 7.94 to 15.8 | ++++ (FS>10,000) | 0.0224 to 1 |  | 7.94 to 15.8 | ++ (1,000>FS>100) | 7.94 to 15.8 | ++ (1,000>FS>100) | 1 to 3.16 | 10 to 51.3
